{"source": "patent US20240277890A1", "about": "“ANTIMICROBIAL ARTICLES COMPRISING POLYURETHANE” (Amicoat AS, priority 2021, published 2024)", "key": {"[1]": {"system": "Staphylococcus aureus ATCC 29213 - antibiotic-susceptible control strain", "details": "ATCC 29213"}, "[2]": {"system": "Moraxella catarrhalis - β-lactamase positive clinical isolate"}, "[3]": {"system": "Streptococcus bovis - macrolide-resistant clinical isolate"}, "[4]": {"system": "Methicillin resistant Staphylococcus aureus (MRSA) strain ATCC 33591", "details": "ATCC 33591"}, "[5]": {"system": "Staphylococcus aureus - methicillin-resistant clinical isolate"}, "[6]": {"system": "Staphylococcus haemolyticus - antibiotic susceptible clinical isolate"}, "[7]": {"system": "Staphylococcus saprophyticus - antibiotic susceptible clinical isolate"}, "[8]": {"system": "Methicillin resistant Staphylococcus epidermidis (MRSE) strain ATCC 27626", "details": "ATCC 27626"}, "[9]": {"system": "Candida (Issatchenkia) krusei ATCC6258 - reference strain"}, "[10]": {"system": "Enterococcus gallinarum vancomycin-resistant (VanC) clinical isolate"}, "[11]": {"system": "Staphylococcus aureus, strain ATCC 25923", "details": "ATCC 25923"}, "[12]": {"system": "Candida tropicalis ATCC750 - reference strain"}, "[13]": {"system": "Staphylococcus epidermidis antibiotic susceptible clinical isolate"}, "[14]": {"system": "Staphylococcus aureus ATCC 25923 - antibiotic-susceptible control strain"}, "[15]": {"system": "Streptococcus agalactiae - antibiotic-susceptible clinical isolate"}, "[16]": {"system": "Pseudomonas aeruginosa - multi-drug resistant clinical isolate"}, "[17]": {"system": "Corynebacterium jeikeium - antibiotic-susceptible clinical isolate"}, "[18]": {"system": "EMRSA15 Staphylococcus aureus (MRSA) - SSCmec type 4", "details": "EMRSA15 - SSCmec type 4"}, "[19]": {"system": "EMRSA3 Staphylococcus aureus (MRSA) - SSCmec type 1", "details": "EMRSA3 - SSCmec type 1"}, "[20]": {"system": "Cryptococcus neoformans - G.R. Micro collection"}, "[21]": {"system": "Staphylococcus aureus ATCC 43300 - methicillin-resistant control strain"}, "[22]": {"system": "Trichophyton mentagrophytes - G.R. Micro collection"}, "[23]": {"system": "Moraxella catarrhalis - reduced fluoroquinolone susceptibility clinical isolate"}, "[24]": {"system": "Staphylococcus epidermidis methicillin-resistant clinical isolate"}, "[25]": {"system": "Staphylococcus aureus FDA486", "experiment": "Murine skin infection model, one day topical treatment", "type": "in vivo, mice", "details": "cream or gel containing 2% (w/w) of compound; three topical treatments at three hourly intervals; compared to placebo", "method": "(§1) The skin of mice was infected with Staphylococcus aureus or Streptococcus pyogenes and subsequently given a total of three treatments at three hourly intervals. Three hours after the last treatment, skin biopsies were collected and the number of colony forming units (CFUs) present in the skin sample was determined. Results are shown in FIGS. 3, 4 and 5 expressed as the number of colony forming units per mouse."}, "[26]": {"system": "Streptococcus pyogenes CS301", "experiment": "Murine skin infection model, one day topical treatment", "type": "in vivo, mice", "method": "as §1"}, "[27]": {"system": "HT2001254 Staphylococcus aureus (MRSA) - PVL positive", "details": "HT2001254 S. aureus (MRSA) PVL positive"}, "[28]": {"system": "Corynebacterium jeikeium - multi-drug resistant clinical isolate"}}, "data": [{"smiles": "CC(C)NC(=O)[C@H](CCCNC(=N)N)NC(=O)[C@H](Cc1c(C(C)(C)C)[nH]c2c(C(C)(C)C)cc(C(C)(C)C)cc12)NC(=O)[C@@H](N)CCCNC(=N)N", "note": "[Compound 7]", "values": [{"measurement": "MIC", "setting": "[1]", "result": 8, "unit": "mg/L"}, {"measurement": "MIC", "setting": "[2]", "result": 4, "unit": "mg/L"}, {"measurement": "S. pyogenes (MIC)", "setting": "S. pyogenes", "result": "<2", "unit": "mg/L"}, {"measurement": "MIC", "setting": "[3]", "result": 8, "unit": "mg/L"}, {"measurement": "MRSA (MIC)", "setting": "[4]", "result": "<2", "unit": "mg/L"}, {"measurement": "MIC", "setting": "[5]", "result": 8, "unit": "mg/L"}, {"measurement": "MIC", "setting": "[6]", "result": 4, "unit": "mg/L"}, {"measurement": "MIC", "setting": "[7]", "result": 2, "unit": "mg/L"}, {"measurement": "E. coli (MIC)", "setting": "E. coli", "result": 7, "unit": "mg/L"}, {"measurement": "MRSE (MIC)", "setting": "[8]", "result": "<2", "unit": "mg/L"}, {"measurement": "P. aeruginosa (MIC)", "setting": "P. aeruginosa", "result": 7, "unit": "mg/L"}, {"measurement": "MIC", "setting": "[9]", "result": 8, "unit": "mg/L"}, {"measurement": "MIC", "setting": "[10]", "result": 8, "unit": "mg/L"}, {"measurement": "S. aureus (MIC)", "setting": "[11]", "result": "<2", "unit": "mg/L"}, {"measurement": "MIC", "setting": "[12]", "result": 4, "unit": "mg/L"}, {"measurement": "MIC", "setting": "[13]", "result": 4, "unit": "mg/L"}, {"measurement": "MIC", "setting": "[14]", "result": 8, "unit": "mg/L"}, {"measurement": "MIC", "setting": "[15]", "result": 8, "unit": "mg/L"}, {"measurement": "MIC", "setting": "[16]", "result": 8, "unit": "mg/L"}, {"measurement": "MIC", "setting": "[17]", "result": 8, "unit": "mg/L"}, {"measurement": "MIC", "setting": "[18]", "result": 8, "unit": "mg/L"}, {"measurement": "MIC", "setting": "[19]", "result": 8, "unit": "mg/L"}, {"measurement": "MIC", "setting": "[20]", "result": 8, "unit": "mg/L"}, {"measurement": "MIC", "setting": "[21]", "result": 8, "unit": "mg/L"}, {"measurement": "MIC", "setting": "[22]", "result": 8, "unit": "mg/L"}, {"measurement": "MIC", "setting": "[23]", "result": 8, "unit": "mg/L"}, {"measurement": "MIC", "setting": "[24]", "result": 4, "unit": "mg/L"}, {"measurement": "number of CFUs in skin biopsy", "setting": "[25]", "result": "the number of CFUs was reduced"}, {"measurement": "number of CFUs in skin biopsy", "setting": "[26]; 1% or 2% gel, three topical treatments at three hourly intervals, compared to placebo gel and bactroban", "result": "more effective at reducing the number of CFUs from a Streptococcus pyogenes CS 301 infection than the placebo gel or the bactroban"}, {"measurement": "number of CFUs in skin biopsy, 2% gel versus 1% gel", "setting": "[26]; gel containing 2% compared to gel containing 1%", "result": "more effective than the gel containing only 1% of compound 7"}, {"measurement": "MIC", "setting": "[27]", "result": 8, "unit": "mg/L"}, {"measurement": "MIC", "setting": "[28]", "result": 8, "unit": "mg/L"}, {"measurement": "C. albicans (MIC)", "setting": "C. albicans", "result": 25, "unit": "mg/L"}]}]}
